For the assay, the system named is deac1 protein. The assay is described as follows: Substrate specificity and stereoselectivity of the purified deac1 enzyme (free amino acid formed, amino acid analyzer). The class given is biochemical, Stenotrophomonas sp. Conditions: 25 mM substrate, 1 h; for cleavage of substrate by the deac1 enzyme (in words): 37° C.; for Rel. activity: 5 μg purified enzyme, pH 7.5, 37° C., specific activity with hippuric acid set equal to 100%. As to the method:
For the investigation of substrate specificity and stereospecificity of the deac1 protein, 5 μg each of purified enzyme were incubated in 20 μl batches in 10 mM NaCl, 10 mM Na phosphate, pH=7.5 with 25 mM each of the N-acetyl-L-amino acids or of the corresponding D enantiomers mentioned in Table 1. For comparison, hippuric acid (N-benzoylglycine), the natural substrate of deacetylase, was employed. […] Table 1 indicates the relative deacetylase activities for the L-enantiomers of the various substrates.

For `CC(=O)N[C@@H](Cc1c[nH]cn1)C(=O)O` [N-Ac-L-histidine], the “cleavage of substrate by the deac1 enzyme (in words)” value (“cleavage of substrate” for short) was “cleaves”.
The same measure, in the same setting: in the case of `CC(=O)N[C@@H](CCC(=O)O)C(=O)O` [N-Ac-L-glutamic acid] it was “cleaves”; in that of `CC(=O)N[C@@H](CC(C)C)C(=O)O` [N-Ac-L-leucine], “cleaves”.
The molecule `CC(=O)N[C@@H](Cc1c[nH]c2ccccc12)C(=O)O` [N-Ac-L-tryptophan] showed a Rel. activity of 0.4%.
In the case of `CC(=O)N[C@@H](Cc1ccccc1)C(=O)O` [N-Ac-L-phenylalanine], the Rel. activity is 24% and the “cleavage of substrate” value is “cleaves”.
In the case of `CC(=O)N[C@@H](CCC(N)=O)C(=O)O` [N-Ac-L-glutamine], the “cleavage of substrate” value is “cleaves”.
The same measure, in the same setting: in the case of `CC(=O)N[C@@H](CCCN)C(=O)O` [N-Ac-L-ornithine] it was “cleaves”.
Molecule `CC(=O)N[C@@H](CO)C(=O)O` [N-Ac-L-serine] registered a Rel. activity of 4%.
`CSCC[C@H](NC(C)=O)C(=O)O` [N-Ac-L-methionine] returned a Rel. activity of 0%.
Turning to `CC(=O)N[C@@H](CCP(C)(=O)O)C(=O)O` [N-Ac-L-phosphinothricin], the “cleavage of substrate” value is “cleaves”.
Same read-out and setting: in the case of `O=C(O)CNC(=O)c1ccccc1` [Hippuric acid (N-benzoylglycine), N-benzoylglycine, reference compound] it was “cleaves”.
Consider `CC(=O)N1CCC[C@H]1C(=O)O` [N-Ac-L-proline], for which the Rel. activity came out at 0%.
As for `CC(=O)NCC(=O)O` [N-Ac-glycine], the “cleavage of substrate” value is listed as “cleaves”.

Values taken from US6686181B1, “Method for the production of L-amino acids from their racemic N-aceytyl-D, L-derivatives by enzymatic racemate cleavage by means of isolated recombinant enzymes” (Aventis Corporation GmbH, priority 1999, dated 2004).
